Laboratory results as given in PubChem BioAssay AID1963828 (Molecular Pharmacology Branch, DTP, NCI, 2024).

Tested on: 991263-137-R1-J2-PDC complex spheroid viability
Test: Anticancer human tumor 991263-137-R1-J2-PDC patient-derived colon adenocarcinoma cell line growth inhibition [POLQ]
Settings: for IC50: curve of first compound; for viability, T/C: stronger effect = lower value
Method: Multicellular complex tumor spheroid response to Polymerase (POL) inhibitors (novobiocin, ART-558, RP6685) in combination with a variety of drugs and investigational agents in selected tumor cell lines
The POL inhibitors (novobiocin, ART-558, and RP6685) were evaluated both individually and in combination with standard of care and investigational anticancer small molecules within a complex spheroid model of solid tumors. . Complex spheroids include a stromal component modeled by human endothelial cells (HUVEC) and fibroblasts modeled by human mesenchymal stem cells (MSCs). The concentration ranges selected for each drug and investigational agent were based upon clinically achievable concentrations if the clinical Cmax of the agent was known.
Compounds. The drugs and investigational agents: novobiocin (NSC847541), ART-558 (NSC835418), RP-6685 (NSC848927), peposertib (NSC802822), ceralasertib (NSC780249), elimusertib (NSC800525), camonsertib (NSC841442), AZD-1390 (NSC803789), olaparib (NSC753686), talazoparib (NSC767125), rucaparib (NSC756644), sotorasib (NSC818433), MRTX-1133 (NSC836407), SN-38 (NSC673596), topotecan (NSC609699), epotoside (NSC141540), doxorubicin (NSC123127), gemcitabine (NSC613327), 5-fluorouracil (NSC19893), paclitaxel (NSC125973), vemurafenib (NSC761431), MSA-2 (NSC828583), SN-011 (NSC837082), adavosertib (NSC754352), prexasertib (NSC758257), carboplatin (NSC241240) and oxaliplatin (NSC266046), were obtained from the National Cancer Institute (NCI) Developmental Therapeutics Program Chemical Repository (21). The FDA-approved anticancer drug set is available from the Developmental Therapeutics Program at https://dtp.cancer.gov/organization/dscb/obtaining/. […] The stock solutions were prepared in dimethyl sulfoxide (DMSO, Sigma-Aldrich, St. Louis, MO, cat. D2650), except for the platinum compounds which were prepared in saline (Quality Biological, Gaithersburg, MD, cat. 114-055-101), at 800-fold the tested concentration and stored at -70 degrees C prior to their use. All drugs and investigational agents were tested over a range starting from a high concentration at or near the clinical Cmax and decreasing in half-log increments. If the clinical Cmax for an agent had not been determined, the highest concentration tested was 10 microM, except for SN-38, which was tested at a high concentration of 1 microM.
Cell Culture. All cells were maintained in an incubator at 37 degrees C and 5% CO2 with 95% humidity. The PDC lines were cultured according to standard operating procedures established by the NCI PDMR (https://pdmr.cancer.gov). Table 3 of the manuscript, lists the cell lines along with the number of the three cell types plated to form the mct-spheroids and media for tumor cell growth. After thawing, all PDC lines, except 997537-175-T-J1-PDC and 415267-285-R-J2-PDC, were cultured in Matrigel-coated flasks prepared with a working solution of 1X Ham's F-12 nutrient mix, without supplementation (Thermo Fisher Scientific, cat. 11765054), 100 U/mL penicillin-streptomycin (Thermo Fisher Scientific, cat. 15140122), and 2.5% Matrigel (Corning Inc., Corning, NY, cat. 354248) for the first three passages. The two PDC lines 997537-175-T-J1-PDC and 415267-285-R-J2-PDC were cultured on uncoated flasks. The 857933-349-R-J2-PDC line was cultured in 6C/Colon 1B media containing advanced DMEM/F-12 (Thermo Fisher Scientific, cat. 12634028), 10 mM HEPES (Thermo Fisher Scientific, cat. 15630080), 1X GlutaMAX supplement (Thermo Fisher Scientific, cat. 35050061), 0.1 mg/mL primocin (InvivoGen, San Diego, CA, cat. ant-pm-2), 10% defined fetal bovine serum, heat inactivated (HyClone Laboratories Inc., Logan, UT, cat. SH30070.03HI), 50% L-WRN conditioned media (ATCC, cat. CRL-3276), 1.25 mM N-Acetyl-L-cysteine (Sigma-Aldrich, cat. A9165), 10 mM nicotinamide (Sigma-Aldrich, cat. N0636), 1X B-27 supplement (Thermo Fisher Scientific, cat. 17504044), 1X N-2 supplement (Thermo Fisher Scientific, cat. […]

[1] = second compound 0.0316 µM, first compound 0.0316 µM
[2] = second compound 0.0316 µM, first compound 0.1 µM
[3] = second compound 0.0316 µM, first compound 0.316 µM
[4] = second compound 0.0316 µM, first compound 1 µM
[5] = second compound 0.1 µM, first compound 0.0316 µM
[6] = second compound 0.1 µM, first compound 0.1 µM
[7] = second compound 0.1 µM, first compound 0.316 µM
[8] = second compound 0.1 µM, first compound 1 µM
[9] = second compound 0.316 µM, first compound 0.0316 µM
[10] = second compound 0.316 µM, first compound 0.1 µM
[11] = second compound 0.316 µM, first compound 0.316 µM
[12] = second compound 0.316 µM, first compound 1 µM
[13] = second compound 1 µM, first compound 0.0316 µM
[14] = second compound 1 µM, first compound 0.1 µM
[15] = second compound 1 µM, first compound 0.316 µM
[16] = second compound 1 µM, first compound 1 µM
[17] = second compound 3.16 µM, first compound 0.0316 µM
[18] = second compound 3.16 µM, first compound 0.1 µM
[19] = second compound 3.16 µM, first compound 0.316 µM
[20] = second compound 3.16 µM, first compound 1 µM
[21] = second compound 10 µM, first compound 0.0316 µM
[22] = second compound 10 µM, first compound 0.1 µM
[23] = second compound 10 µM, first compound 0.316 µM
[24] = second compound 10 µM, first compound 1 µM
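Note: spheroids exposed to compounds for 7 days before readout.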
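Throughout, for viability, T/C: 100% = DMSO vehicle control viability.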

Structure (SMILES): C=CCn1c(=O)c2cnc(Nc3ccc(N4CCN(C)CC4)cc3)nc2n1-c1cccc(C(C)(C)O)n1 + COC1C(OC(N)=O)C(O)C(Oc2ccc3c(O)c(NC(=O)c4ccc(O)c(CC=C(C)C)c4)c(=O)oc3c2C)OC1(C)C
- IC50 (second compound 0.0316 µM): > 1 µM
- IC50 (second compound 0.1 µM): > 1 µM
- IC50 (second compound 0.316 µM): > 1 µM
- IC50 (second compound 1 µM): > 1 µM
- IC50 (second compound 3.16 µM): > 1 µM
- IC50 (second compound 10 µM): > 1 µM
- viability, T/C (second compound 0.0316 µM, first compound 0.00316 µM): 116%
- viability, T/C (second compound 0.0316 µM, first compound 0.01 µM): 115%
- viability, T/C [1]: 105%
- viability, T/C [2]: 107%
- viability, T/C [3]: 95.6%
- viability, T/C [4]: 101%
- viability, T/C (second compound 0.1 µM, first compound 0.00316 µM): 94.2%
- viability, T/C (second compound 0.1 µM, first compound 0.01 µM): 109%
- viability, T/C [5]: 91.1%
- viability, T/C [6]: 97%
- viability, T/C [7]: 108%
- viability, T/C [8]: 77.4%
- viability, T/C (second compound 0.316 µM, first compound 0.00316 µM): 102%
- viability, T/C (second compound 0.316 µM, first compound 0.01 µM): 110%
- viability, T/C [9]: 92.6%
- viability, T/C [10]: 97.8%
- viability, T/C [11]: 100%
- viability, T/C [12]: 108%
- viability, T/C (second compound 1 µM, first compound 0.00316 µM): 85.1%
- viability, T/C (second compound 1 µM, first compound 0.01 µM): 100%
- viability, T/C [13]: 96.8%
- viability, T/C [14]: 98.7%
- viability, T/C [15]: 104%
- viability, T/C [16]: 98%
- viability, T/C (second compound 3.16 µM, first compound 0.00316 µM): 111%
- viability, T/C (second compound 3.16 µM, first compound 0.01 µM): 81.2%
- viability, T/C [17]: 119%
- viability, T/C [18]: 105%
- viability, T/C [19]: 115%
- viability, T/C [20]: 93.4%
- viability, T/C (second compound 10 µM, first compound 0.00316 µM): 98.1%
- viability, T/C (second compound 10 µM, first compound 0.01 µM): 107%
- viability, T/C [21]: 102%
- viability, T/C [22]: 92.5%
- viability, T/C [23]: 110%
- viability, T/C [24]: 105%

Structure (SMILES): CNCc1ccc(-c2[nH]c3cc(F)cc4c3c2CCNC4=O)cc1 + COC1C(OC(N)=O)C(O)C(Oc2ccc3c(O)c(NC(=O)c4ccc(O)c(CC=C(C)C)c4)c(=O)oc3c2C)OC1(C)C
- IC50 (second compound 0.0316 µM): > 10 µM
- IC50 (second compound 0.1 µM): > 10 µM
- IC50 (second compound 0.316 µM): > 10 µM
- IC50 (second compound 1 µM): > 10 µM
- IC50 (second compound 3.16 µM): > 10 µM
- IC50 (second compound 10 µM): > 10 µM
- viability, T/C [1]: 85.7%
- viability, T/C [2]: 101%
- viability, T/C [3]: 94%
- viability, T/C [4]: 97.1%
- viability, T/C (second compound 0.0316 µM, first compound 3.16 µM): 121%
- viability, T/C (second compound 0.0316 µM, first compound 10 µM): 103%
- viability, T/C [5]: 106%
- viability, T/C [6]: 104%
- viability, T/C [7]: 109%
- viability, T/C [8]: 98.5%
- viability, T/C (second compound 0.1 µM, first compound 3.16 µM): 101%
- viability, T/C (second compound 0.1 µM, first compound 10 µM): 95.9%
- viability, T/C [9]: 105%
- viability, T/C [10]: 91.6%
- viability, T/C [11]: 106%
- viability, T/C [12]: 100%
- viability, T/C (second compound 0.316 µM, first compound 3.16 µM): 99.6%
- viability, T/C (second compound 0.316 µM, first compound 10 µM): 98.5%
- viability, T/C [13]: 82.1%
- viability, T/C [14]: 111%
- viability, T/C [15]: 117%
- viability, T/C [16]: 104%
- viability, T/C (second compound 1 µM, first compound 3.16 µM): 110%
- viability, T/C (second compound 1 µM, first compound 10 µM): 97.3%
- viability, T/C [17]: 92.2%
- viability, T/C [18]: 112%
- viability, T/C [19]: 111%
- viability, T/C [20]: 106%
- viability, T/C (second compound 3.16 µM, first compound 3.16 µM): 119%
- viability, T/C (second compound 3.16 µM, first compound 10 µM): 102%
- viability, T/C [21]: 107%
- viability, T/C [22]: 110%
- viability, T/C [23]: 105%
- viability, T/C [24]: 102%
- viability, T/C (second compound 10 µM, first compound 3.16 µM): 119%
- viability, T/C (second compound 10 µM, first compound 10 µM): 106%
